Test: xn = mol fraction of the nth substance listed

CNc1ccccc1 + CCCCOCCO
viscosity [mPa·s], 101.3 kPa
Settings	x2 = 0.0992	x2 = 0.2016	x2 = 0.3298	x2 = 0.4032	x2 = 0.4978	x2 = 0.6441	x2 = 0.7771	x2 = 0.8935
298 K	2.01	2.089	2.213	2.314	2.425	2.589	2.709	2.788
303 K	1.756	1.811	1.918	1.999	2.094	2.232	2.319	2.395
308 K	1.567	1.613	1.699	1.753	1.836	1.951	2.049	2.111
313 K	1.398	1.433	1.502	1.55	1.619	1.718	1.792	1.851
318 K	1.256	1.302	1.352	1.444	1.495	1.576	1.661	1.696

CC(C)Cc1ccc(C(C)C(=O)O)cc1 (centres undefined) + CCCO
viscosity [mPa·s], 100 kPa
Settings	x1 = 0.00242	x1 = 0.00365	x1 = 0.00483	x1 = 0.006021	x1 = 0.007225	x1 = 0.0096	x1 = 0.012
298.15 K	1.95	1.956	1.963	1.971	1.979	1.995	2.014
308.15 K	1.529	1.538	1.548	1.56	1.575	1.605	1.639

CC[n+]1ccccc1.N#C[N-]C#N + CCCO
Settings	viscosity [mPa·s]
313.15 K, 100 kPa, x1 = 0.8905	9.945

CNc1ccccc1 + CCCO
viscosity [mPa·s], 101.33 kPa
Settings	x1 = 0.1008	x1 = 0.1995	x1 = 0.2999	x1 = 0.4015	x1 = 0.5012	x1 = 0.6016	x1 = 0.7016	x1 = 0.8003	x1 = 0.9016
303.15 K	1.608	1.532	1.502	1.494	1.502	1.527	1.551	1.61	1.688
308.15 K	1.433	1.37	1.345	1.337	1.347	1.368	1.392	1.446	1.512
313.15 K	1.29	1.235	1.21	1.204	1.219	1.235	1.26	1.306	1.347
318.15 K	1.161	1.116	1.096	1.092	1.097	1.123	1.145	1.188	1.247
323.15 K	1.051	1.01	1	0.9995	1.012	1.026	1.047	1.091	1.142

COC(=O)OC + CCCO
101.3 kPa
Settings	viscosity [mPa·s]
293.15 K, x1 = 0.0508	1.875
293.15 K, x1 = 0.0875	1.683
293.15 K, x1 = 0.1647	1.362
293.15 K, x1 = 0.2944	1.024
293.15 K, x1 = 0.3858	0.885
293.15 K, x1 = 0.544	0.751
293.15 K, x1 = 0.6026	0.716
293.15 K, x1 = 0.7041	0.666
293.15 K, x1 = 0.89	0.61
293.15 K, x1 = 0.9015	0.606
293.15 K, x1 = 0.951	0.608
298.15 K, x1 = 0.0517	1.675
298.15 K, x1 = 0.0898	1.493
298.15 K, x1 = 0.1903	1.147
298.15 K, x1 = 0.2896	0.936
298.15 K, x1 = 0.3944	0.803
298.15 K, x1 = 0.498	0.725
298.15 K, x1 = 0.5993	0.673
298.15 K, x1 = 0.7016	0.631
298.15 K, x1 = 0.8007	0.598
298.15 K, x1 = 0.8994	0.579
298.15 K, x1 = 0.949	0.576
303.15 K, x1 = 0.0728	1.404
303.15 K, x1 = 0.0829	1.367
303.15 K, x1 = 0.184	1.072
303.15 K, x1 = 0.2605	0.919
303.15 K, x1 = 0.3758	0.769
303.15 K, x1 = 0.4849	0.685
303.15 K, x1 = 0.6278	0.613
303.15 K, x1 = 0.7071	0.594
303.15 K, x1 = 0.8061	0.569
303.15 K, x1 = 0.9018	0.554
303.15 K, x1 = 0.9507	0.542
313.15 K, x1 = 0.0498	1.198
313.15 K, x1 = 0.0973	1.066
313.15 K, x1 = 0.1985	0.86
313.15 K, x1 = 0.3015	0.721
313.15 K, x1 = 0.4025	0.639
313.15 K, x1 = 0.5021	0.584
313.15 K, x1 = 0.6029	0.546
313.15 K, x1 = 0.7038	0.521
313.15 K, x1 = 0.8033	0.5
313.15 K, x1 = 0.9073	0.489
313.15 K, x1 = 0.951	0.489

Reference: the CheMixHub viscosity set
